Tests used:
p70S6K = p70S6K (Homo sapiens, UniProt P23443); assay: biochemical; conditions: read-out: % inhib
Flt1 = Flt1 (Homo sapiens, UniProt P17948); assay: biochemical; conditions: read-out: % inhib
GRK5 = GRK5 (Homo sapiens, UniProt P34947); assay: biochemical; conditions: read-out: % inhib
[1] = system: U87 MG Merchant (MG/M) human glioblastoma xenografts
Procedure: All in vivo studies were conducted in compliance with Genentech's Institutional Animal Care and Use Committee. […] Cells in log-phase growth were harvested and resuspended in HBSS:Matrigel (BD Biosciences; Franklin Lakes, N.J.) (1:1, v:v) for injection into female NCr nude mice (Taconic Farms, Cambridge City, Ind.) aged 20 weeks. Animals received five million cells subcutaneously in the right lateral thorax in 0.1 mL. […] The inhibitor was formulated once weekly in 0.5% methylcellulose and 0.2% Tween-80 at concentrations needed for target doses in a volume of 0.2 mL. All formulations were stored in a refrigerator and brought to room temperature and mixed well by vortex before oral administration by gavage once daily for 23 days. Tumor volumes were calculated from perpendicular length and width caliper measurements using the formula: Tumor Volume (mm^3)=0.5×(Length×Width^2). Changes in body weights are reported as a percentage change from the starting weight.
Log 2(tumor volume) growth traces were fitted to each dose group with restricted cubic splines for the dose and fixed time effects. […] Fitted tumor volumes were plotted in the natural scale in Prism (version 5.0b for Mac) (GraphPad Software; La Jolla, Calif.). Linear mixed-effects analysis was also employed using R to analyze the repeated measurement of body weight changes from the same animals over time.
The mice control group was administered the vehicle in the absence of the drug once at the same dosage schedule. Changes in tumor volumes over time by dose for each compound are depicted in FIG. 3 as cubic spline fits generated via Linear Mixed Effects analysis of log-transformed volumes.

MSK2 = MSK2 (Homo sapiens, UniProt O75676); assay: biochemical; conditions: read-out: % inhib
[2] = In vivo pharmacokinetics IV and PO; parameters: species or system beagle dogs; conditions: Dog
Procedure: The hepatocyte stability of compound IIIat was evaluated across preclinical species. Certain in vivo pharmacokinetic parameters were also evaluated. […] Male Sprague-Dawley rats, female CD-1 mice, male cynomolgus monkeys and beagle dogs were dosed intravenously with 1 mg/kg of compound IIIat prepared in 60% PEG400/10% Ethanol. Compound IIIat was administered orally (PO) at the indicated dose in 0.5% methylcellulose with 0.2% Tween 80 (MCT).

ErbB4 = ErbB4 (Homo sapiens, UniProt Q15303); assay: biochemical; conditions: read-out: % inhib
CLK3 = CLK3 (Homo sapiens, UniProt P49761); assay: biochemical; conditions: read-out: % inhib
[3] = MALDI imaging of brain distribution, GS2 orthotopic model; assay type: in vivo, female nude mice; conditions: 15 mg/kg PO, 1 hour post dose
Procedure: Mice were euthanized at 1 and 6 hours post-dose via exsanguination by perfusion under anesthesia. Brains were excised, flash frozen in liquid N2 and stored in a −80° C. freezer until analyzed. Fresh frozen tissue sections were obtained on a cryomicrotome (Leica CM3050S, Buffalo Grove, Ill.) at 12 μm thickness and thaw-mounted onto indium tin oxide coated glass slides (Bruker Daltonics, Billerica, Mass.). Tissue sections were an analyzed by imaging MALDI MS, providing signal intensities (and not absolute quantitation), followed by cresyl violet staining for histological interrogation.
For MALDI MAS analysis, a 40 mg/mL solution of 2,5-dihydroxybenzoic acid (Sigma-Aldrich, St. Louis, Mo.) was prepared in methanol:water (70:30 v/v). […] Matrix solution was homogenously spray-coated onto the tissue using a HTX TM-Sprayer (HTX technologies. Chapel Hill, N.C.). Matrix-coated tissue sections were transferred to the MALDI mass spectrometer (SolariX 7T FT-ICR, Bruker Daltonics, Bremen, Germany) for imaging analysis. […] Laser intensity and number of shots were optimized for sensitivity of the parent drug (1200 shots) with ion detection collected over the mass range of m/z 150-3000.
Following completion of the imaging experiments, matrix coaling was removed by rinsing the glass slide in 100% methanol for 30 seconds or until the entire matrix was visibly removed. […]

pS6 [4] = assay: Modulation of pS6 in the brain of healthy mice; assay type: in vivo, Female CD-1 mice; conditions: single oral dose 25 mg/kg
Procedure: Inhibition of the PI3K pathway was assessed in the brain of healthy mice through measurement of two markers, pAkt and pS6. […] Brains and plasma were collected at 1 and 6 hours post-dose, from 3 animals at each time point. […] For PD analysis, cell extraction buffer (Invitrogen, Camarillo, Calif.) containing 10 mM Tris pH 7.4, 100 mM NaCl, 1 mM EDTA, 1 mM EGTA, 1 mM NaF, 20 mM Na4P2O7, 2 mM Na3VO4, 1% Triton X-100, 10% glycerol, 0.1% SDS, and 0.5% deoxycholate was supplemented with phosphatase, protease inhibitors (Sigma, St. Louis, Mo.) and 1 mM PMSF and added to frozen brain biopsies. Brains were homogenized with a small pestle (Konte Glass Company, Vineland, N.J.), sonicated briefly on ice, and centrifuged at 20,000 g for 20 minutes at 4° C. Protein concentration was determined using BCA protein assay (Pierce, Rockford, Ill.). Proteins were separated by electrophoresis and transferred to NuPage nitrocellulose membranes (Invitrogen, Camarillo, Calif.). Licor Odyssey Infrared detection system (Licor, Lincoln, Nebr.) was used to assess and quantify protein expression. […] The differences in marker levels between the treated and control mice were evaluated using the Student's t-test (Prism 5, GraphPad).

pS6 [5] = assay: PI3K pathway modulation in GS2 tumors, western blot; assay type: in vivo, mice; conditions: 15 mg/kg PO daily 4 weeks

Sequence of GRK5 (P34947 whole entry): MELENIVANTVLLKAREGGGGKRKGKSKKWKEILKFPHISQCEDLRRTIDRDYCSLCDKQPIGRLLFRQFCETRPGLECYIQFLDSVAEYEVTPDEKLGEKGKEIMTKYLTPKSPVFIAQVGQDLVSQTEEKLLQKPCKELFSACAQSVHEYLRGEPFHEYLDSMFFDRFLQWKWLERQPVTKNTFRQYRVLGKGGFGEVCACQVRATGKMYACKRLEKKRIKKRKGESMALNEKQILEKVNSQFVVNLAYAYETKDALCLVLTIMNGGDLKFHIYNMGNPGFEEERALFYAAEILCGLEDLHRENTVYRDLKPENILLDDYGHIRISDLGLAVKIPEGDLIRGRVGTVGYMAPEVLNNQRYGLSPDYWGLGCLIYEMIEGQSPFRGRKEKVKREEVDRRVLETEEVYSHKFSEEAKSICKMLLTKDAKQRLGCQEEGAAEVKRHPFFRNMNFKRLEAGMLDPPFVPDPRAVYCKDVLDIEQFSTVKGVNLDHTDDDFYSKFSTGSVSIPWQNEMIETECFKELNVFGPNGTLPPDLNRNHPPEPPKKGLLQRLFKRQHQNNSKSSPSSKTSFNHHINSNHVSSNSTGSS
Sequence of ErbB4 (Q15303 26-1308): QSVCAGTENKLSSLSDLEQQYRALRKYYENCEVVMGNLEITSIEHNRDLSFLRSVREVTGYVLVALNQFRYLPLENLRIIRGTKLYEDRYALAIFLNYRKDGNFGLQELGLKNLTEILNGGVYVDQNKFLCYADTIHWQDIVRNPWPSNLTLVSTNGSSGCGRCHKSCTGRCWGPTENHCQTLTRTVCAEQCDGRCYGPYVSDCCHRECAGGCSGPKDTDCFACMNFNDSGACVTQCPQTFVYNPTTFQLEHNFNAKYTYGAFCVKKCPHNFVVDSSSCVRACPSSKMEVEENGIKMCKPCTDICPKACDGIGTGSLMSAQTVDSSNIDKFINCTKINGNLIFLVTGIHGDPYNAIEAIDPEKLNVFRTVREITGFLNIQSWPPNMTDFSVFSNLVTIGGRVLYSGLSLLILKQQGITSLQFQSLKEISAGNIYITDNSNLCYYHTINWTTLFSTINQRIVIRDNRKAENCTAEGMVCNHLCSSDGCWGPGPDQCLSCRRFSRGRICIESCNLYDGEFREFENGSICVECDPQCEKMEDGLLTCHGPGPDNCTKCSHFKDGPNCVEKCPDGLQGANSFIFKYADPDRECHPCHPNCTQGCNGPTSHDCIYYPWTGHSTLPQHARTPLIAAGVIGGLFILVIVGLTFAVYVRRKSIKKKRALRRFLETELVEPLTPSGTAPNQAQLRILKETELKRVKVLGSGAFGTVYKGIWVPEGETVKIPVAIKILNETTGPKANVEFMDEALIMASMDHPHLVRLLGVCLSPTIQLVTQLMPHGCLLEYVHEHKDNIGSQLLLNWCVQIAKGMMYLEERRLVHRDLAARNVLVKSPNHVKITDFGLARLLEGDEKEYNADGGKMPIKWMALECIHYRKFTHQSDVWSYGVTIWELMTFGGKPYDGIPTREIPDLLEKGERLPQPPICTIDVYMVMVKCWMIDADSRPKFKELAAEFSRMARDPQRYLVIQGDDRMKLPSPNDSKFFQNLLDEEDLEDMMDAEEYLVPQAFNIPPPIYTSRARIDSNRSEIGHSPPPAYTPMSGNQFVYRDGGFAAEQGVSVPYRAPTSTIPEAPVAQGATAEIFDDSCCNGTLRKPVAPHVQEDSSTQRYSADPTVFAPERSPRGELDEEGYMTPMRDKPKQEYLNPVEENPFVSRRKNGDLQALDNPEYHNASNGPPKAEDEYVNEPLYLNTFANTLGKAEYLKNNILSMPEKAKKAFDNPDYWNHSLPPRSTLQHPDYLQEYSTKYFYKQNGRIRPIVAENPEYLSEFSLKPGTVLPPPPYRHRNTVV
Sequence of p70S6K (P23443 whole entry): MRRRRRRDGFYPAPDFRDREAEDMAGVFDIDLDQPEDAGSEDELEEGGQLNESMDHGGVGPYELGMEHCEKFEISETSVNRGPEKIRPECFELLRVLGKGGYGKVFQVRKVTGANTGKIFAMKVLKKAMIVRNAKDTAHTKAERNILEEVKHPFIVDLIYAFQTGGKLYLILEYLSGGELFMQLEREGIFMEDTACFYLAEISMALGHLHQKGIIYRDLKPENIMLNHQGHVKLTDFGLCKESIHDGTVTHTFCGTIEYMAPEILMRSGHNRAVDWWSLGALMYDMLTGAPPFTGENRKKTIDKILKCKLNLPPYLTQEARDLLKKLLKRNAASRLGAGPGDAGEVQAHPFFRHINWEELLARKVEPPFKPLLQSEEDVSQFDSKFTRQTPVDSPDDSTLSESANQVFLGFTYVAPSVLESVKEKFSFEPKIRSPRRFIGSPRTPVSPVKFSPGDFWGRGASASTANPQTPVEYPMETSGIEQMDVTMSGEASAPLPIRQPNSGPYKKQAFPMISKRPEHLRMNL
Sequence of Flt1 (P17948 27-1338): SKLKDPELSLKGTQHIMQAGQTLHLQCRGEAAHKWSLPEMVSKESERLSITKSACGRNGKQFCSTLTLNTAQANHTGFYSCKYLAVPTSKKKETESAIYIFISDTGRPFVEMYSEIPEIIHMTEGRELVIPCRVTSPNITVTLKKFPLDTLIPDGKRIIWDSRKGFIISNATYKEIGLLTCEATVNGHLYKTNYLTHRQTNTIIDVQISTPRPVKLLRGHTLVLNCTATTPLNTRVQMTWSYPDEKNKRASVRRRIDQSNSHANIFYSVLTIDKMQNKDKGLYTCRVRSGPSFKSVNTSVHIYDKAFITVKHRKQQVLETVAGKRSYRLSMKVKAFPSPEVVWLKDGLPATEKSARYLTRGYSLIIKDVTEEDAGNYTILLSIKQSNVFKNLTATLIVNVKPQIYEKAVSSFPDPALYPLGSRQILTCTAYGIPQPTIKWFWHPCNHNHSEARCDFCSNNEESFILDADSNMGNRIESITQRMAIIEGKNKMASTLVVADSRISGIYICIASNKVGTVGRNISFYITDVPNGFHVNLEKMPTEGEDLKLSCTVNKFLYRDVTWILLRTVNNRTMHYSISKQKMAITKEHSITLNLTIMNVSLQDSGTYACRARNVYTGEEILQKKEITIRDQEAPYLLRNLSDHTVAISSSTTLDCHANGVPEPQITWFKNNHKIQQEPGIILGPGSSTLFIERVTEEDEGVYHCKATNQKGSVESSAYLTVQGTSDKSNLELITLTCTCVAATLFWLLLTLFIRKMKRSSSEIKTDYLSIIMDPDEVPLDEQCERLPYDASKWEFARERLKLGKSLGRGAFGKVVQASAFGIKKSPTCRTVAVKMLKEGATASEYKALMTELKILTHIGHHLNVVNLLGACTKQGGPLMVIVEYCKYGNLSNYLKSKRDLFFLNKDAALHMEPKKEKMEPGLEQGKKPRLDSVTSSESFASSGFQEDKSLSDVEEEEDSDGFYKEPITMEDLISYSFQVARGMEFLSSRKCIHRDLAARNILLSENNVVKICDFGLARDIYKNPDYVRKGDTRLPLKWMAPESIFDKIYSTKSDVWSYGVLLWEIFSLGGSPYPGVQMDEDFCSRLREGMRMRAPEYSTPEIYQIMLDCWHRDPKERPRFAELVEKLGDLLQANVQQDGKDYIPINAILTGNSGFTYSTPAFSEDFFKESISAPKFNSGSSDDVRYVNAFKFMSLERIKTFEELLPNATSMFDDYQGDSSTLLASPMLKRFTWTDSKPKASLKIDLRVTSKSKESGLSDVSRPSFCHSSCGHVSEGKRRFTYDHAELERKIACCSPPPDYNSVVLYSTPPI
Sequence of MSK2 (O75676 whole entry, species assumed): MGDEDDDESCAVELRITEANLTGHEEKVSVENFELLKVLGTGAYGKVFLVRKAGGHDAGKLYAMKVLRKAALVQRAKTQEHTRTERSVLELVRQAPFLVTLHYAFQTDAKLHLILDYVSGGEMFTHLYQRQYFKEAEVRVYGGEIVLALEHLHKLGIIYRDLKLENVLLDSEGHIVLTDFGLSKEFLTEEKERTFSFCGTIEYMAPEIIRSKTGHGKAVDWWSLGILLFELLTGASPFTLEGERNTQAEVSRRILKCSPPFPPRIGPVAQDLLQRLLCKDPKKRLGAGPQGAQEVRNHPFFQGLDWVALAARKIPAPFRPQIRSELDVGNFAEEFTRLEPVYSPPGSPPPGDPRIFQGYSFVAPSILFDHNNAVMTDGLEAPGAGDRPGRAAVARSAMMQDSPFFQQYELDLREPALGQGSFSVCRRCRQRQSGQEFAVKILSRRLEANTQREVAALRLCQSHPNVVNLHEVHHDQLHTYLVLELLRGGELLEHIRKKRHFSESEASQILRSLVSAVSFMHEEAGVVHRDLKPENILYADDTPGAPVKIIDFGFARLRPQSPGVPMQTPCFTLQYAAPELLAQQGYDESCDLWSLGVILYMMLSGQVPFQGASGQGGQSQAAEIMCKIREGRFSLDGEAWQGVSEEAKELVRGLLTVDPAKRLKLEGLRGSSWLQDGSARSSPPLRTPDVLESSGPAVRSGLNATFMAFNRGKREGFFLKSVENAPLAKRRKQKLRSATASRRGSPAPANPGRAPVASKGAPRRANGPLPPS
Sequence of CLK3 (P49761 whole entry, species assumed): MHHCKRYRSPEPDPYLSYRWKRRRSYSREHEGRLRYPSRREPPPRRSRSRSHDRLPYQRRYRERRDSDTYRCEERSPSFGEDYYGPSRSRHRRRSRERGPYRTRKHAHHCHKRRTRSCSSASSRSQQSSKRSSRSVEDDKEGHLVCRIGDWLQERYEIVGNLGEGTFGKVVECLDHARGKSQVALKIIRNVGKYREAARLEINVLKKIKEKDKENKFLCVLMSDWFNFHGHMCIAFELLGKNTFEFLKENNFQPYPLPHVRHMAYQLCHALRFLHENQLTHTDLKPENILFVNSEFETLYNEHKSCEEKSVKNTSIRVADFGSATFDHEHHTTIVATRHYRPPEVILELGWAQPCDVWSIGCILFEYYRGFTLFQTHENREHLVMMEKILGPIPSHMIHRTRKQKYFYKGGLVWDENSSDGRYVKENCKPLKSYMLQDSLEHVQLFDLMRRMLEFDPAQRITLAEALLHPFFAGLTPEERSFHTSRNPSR

CC1(C)OCCn2c1nc1c(N3CCOCC3)nc(-c3cnc(N)nc3)nc12 [GDC-0084, 5-(6,6-dimethyl-4-morpholino-8,9-dihydro-6H-[1,4]oxazino[3,4-e]purin-2-yl)pyrimidin-2-amine]
inhibition at 1 µM (p70S6K): 6% | inhibition at 1 µM (Flt1): 0.6% | inhibition at 1 µM (GRK5): -10% | tumor response at highest dose ([1]; 17.9 mg/kg dose level): tumor regressions | tumor growth inhibition ([1]; 0.45-17.9 mg/kg oral, 23 days): significant and dose-dependent tumor growth inhibition | tolerability ([1]; mouse, in vivo): well tolerated | dose level at which tumor growth inhibition was first observed ([1]; oral dose escalation): 2.2 mg/kg | inhibition at 1 µM (MSK2): 0.6% | AUC ([2]; PO 2 mg/kg in MCT): 1.6 μm·h | Cmax ([2]; PO 2 mg/kg in MCT): 0.2 μm | clearance ([2]; beagle, plasma, IV 1 mg/kg, read-out: In vivo Cl): 26 mL/min/kg | Vd ([2]; beagle, plasma, IV 1 mg/kg, read-out: Vss): 3 L/kg | bioavailability ([2]; beagle, plasma, PO 2 mg/kg in MCT): 40% | inhibition at 1 µM (ErbB4): 7% | inhibition at 1 µM (CLK3): 7% | mean pixel intensity (MALDI imaging) ([3]; GS2 tumors): 0.34 | mean pixel intensity (MALDI imaging) ([3]; normal brain of GS2 tumor-bearing mice): 0.55 | Suppression of pS6 in brain (pS6 [4]; 1 hour post dose): 90% | Suppression of pS6 in brain (pS6 [4]; 6 hours after dosing): greater than 70% | Suppression of pS6 in GS2 tumors (pS6 [5]; 2 hours after final administration): 35% | pS6 level in GS2 tumors (pS6 [5]; 8 hours post-dose): back to baseline levels

From patent US11643421B2, “Process for the preparation of tricyclic PI3K inhibitor compounds and methods for using the same for the treatment of cancer” (priority 2015, dated 2023)
